Experimental data from patent US11795177B2, “Substituted quinoline analogs as aldehyde dehydrogenase 1A1 (ALDH1A1) inhibitors” (THE UNITED STATES OF AMERICA, AS REPRESENTED BY THE …, priority 2017, dated 2023).
pIC50: −log10 of the molar value.

Columns and labels:
MIA PaCa-2 cells = test: MIA PaCa2 cell-based assay (1,536-well high-content imaging ALDEFLUOR assay); set-up: species or system human; settings: Homo sapiens, 0.5 h, ALDEFLUOR BAAA substrate 500 nM, 30 minutes
Procedure, shortened: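 High-content ALDEFLUOR imaging readout: BAA-retaining cells in FITC channel scored against Hoechst-counted nuclei. Before imaging, MIA PaCa-2 cells seeded at 1,000 per well received final 500 nM BAAA and 0.5 nM Hoechst with compounds in 16-point series (1.4 nM to 47.8 μM), 30 min, 37° C.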

ALDH1A1 enzyme = biological target: T1, ALDH1A1 enzyme (Homo sapiens, UniProt P00352); test: ALDH1A1 enzymatic assay (in vitro); format: biochemical; settings: ALDH1A1 enzyme 20 nM, NAD+ 1 mM, propionaldehyde 80 μM; read-out: ALDH1A1 IC50
T1 sequence (P00352 1-501): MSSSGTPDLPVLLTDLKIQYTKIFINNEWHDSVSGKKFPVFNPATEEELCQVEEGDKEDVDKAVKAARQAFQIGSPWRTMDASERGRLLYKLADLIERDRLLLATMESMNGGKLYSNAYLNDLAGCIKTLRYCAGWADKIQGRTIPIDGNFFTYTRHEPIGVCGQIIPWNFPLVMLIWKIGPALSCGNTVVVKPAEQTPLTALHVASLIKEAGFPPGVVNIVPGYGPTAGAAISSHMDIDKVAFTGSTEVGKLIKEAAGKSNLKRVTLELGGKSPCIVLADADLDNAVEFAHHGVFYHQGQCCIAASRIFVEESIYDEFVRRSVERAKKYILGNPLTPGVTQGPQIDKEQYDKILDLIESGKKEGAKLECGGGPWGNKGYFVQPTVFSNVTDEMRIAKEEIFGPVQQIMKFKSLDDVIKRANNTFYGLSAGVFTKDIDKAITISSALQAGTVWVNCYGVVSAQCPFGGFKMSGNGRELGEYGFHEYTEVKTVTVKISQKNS
Procedure, shortened: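 ALDH1A1 (20 nM final) in 100 mM HEPES pH 7.5, 0.01% Tween 20 was preincubated 15 min at RT with compound (968 pM–57.2 μM final), then started with 1 mM NAD+ and 80 μM propionaldehyde. NADH fluorescence (ex 340/em 450 nm) followed kinetically for 10 min; change normalized to no-inhibitor and no-enzyme controls for percent inhibition and curve fitting.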

| SMILES | pIC50 (MIA PaCa-2 cells) | pIC50 (ALDH1A1 enzyme) |
| --- | --- | --- |
| O=C(c1cnc2ccc(F)cc2c1N1CCC2(CC1)Cc1ccccc1C2=O)N1CCN(C(=O)C2CC2)CC1 [Example 204, 1′-(3-(4-(cyclopropanecarbonyl)piperazine-1-carbonyl)-6-fluoroquinolin-4-yl)spiro[indene-2,4′-piperidin]-1(3H)-one] | < 5.00 | 5.00 to 6.00 |
| Cn1ncc2c(N3CCC(C)(C#N)CC3)c(C(=O)N3CCN(C(=O)C4CC4)CC3)cnc21 [Example 205, 1-(5-(4-(cyclopropanecarbonyl)piperazine-1-carbonyl)-1-methyl-1H-pyrazolo[3,4-b]pyridin-4-yl)-4-methylpiperidine-4-carbonitrile] | 5.00 to 6.00 | > 6.30 |
| CCS(=O)(=O)N1CCN(C(=O)c2cnc3c(cnn3C)c2N2CCC(C)(C#N)CC2)CC1 [Example 207, 1-(5-(4-(ethylsulfonyl)piperazine-1-carbonyl)-1-methyl-1H-pyrazolo[3,4-b]pyridin-4-yl)-4-methylpiperidine-4-carbonitrile] | 5.00 to 6.00 | > 6.30 |
| CS(=O)(=O)N1CCN(C(=O)c2cnc3ccc(F)cc3c2-c2ccc(CC#N)cc2)CC1 [Example 212, 2-(4-(6-fluoro-3-(4-(methylsulfonyl)piperazine-1-carbonyl)quinolin-4-yl)phenyl)acetonitrile] | 5.00 to 6.00 | > 6.30 |
| N#CCC1CCN(c2c(C(=O)N3CCN(C(=O)C4CC4)CC3)cnc3ccc(F)cc23)CC1 [Example 213, 2-(1-(3-(4-(cyclopropanecarbonyl)piperazine-1-carbonyl)-6-fluoroquinolin-4-yl)piperidin-4-yl)acetonitrile] | 5.00 to 6.00 | 5.00 to 6.00 |
| CS(=O)(=O)N1CCN(C(=O)c2cnc3ccc(F)cc3c2N2CCC(CC#N)CC2)CC1 [Example 214, 2-(1-(6-fluoro-3-(4-(methylsulfonyl)piperazine-1-carbonyl)quinolin-4-yl)piperidin-4-yl)acetonitrile] | < 5.00 | 5.00 to 6.00 |
| CC(=O)C1(c2ccccc2)CCN(c2c(C(=O)N3CCN(C(=O)C4CC4)CC3)cnc3ccc(F)cc23)CC1 [Example 215, 1-(1-(3-(4-(cyclopropanecarbonyl)piperazine-1-carbonyl)-6-fluoroquinolin-4-yl)-4-phenylpiperidin-4-yl)ethanone] | 6.00 to 6.30 | > 6.30 |
| CCS(=O)(=O)N1CCN(C(=O)c2cnc3sccc3c2N2CCC(C)(C#N)CC2)CC1 [Example 218, 1-(5-(4-(ethylsulfonyl)piperazine-1-carbonyl)thieno[2,3-b]pyridin-4-yl)-4-methylpiperidine-4-carbonitrile] | 5.00 to 6.00 | > 6.30 |
| C=CC(=O)N1CCN(c2c(C(=O)N3CCN(S(C)(=O)=O)CC3)cnc3ccc(F)cc23)CC1 [Example 220, 1-(4-(6-fluoro-3-(4-(methylsulfonyl)piperazine-1-carbonyl)quinolin-4-yl)piperazin-1-yl)prop-2-en-1-one] | < 5.00 | 5.00 to 6.00 |
| CS(=O)(=O)N1CCN(C(=O)c2cnc3ccc(F)cc3c2N2CCN(C(=O)/C(C#N)=C/C3CC3)CC2)CC1 [Example 222, (e)-3-cyclopropyl-2-(4-(6-fluoro-3-(4-(methylsulfonyl)piperazine-1-carbonyl)quinolin-4-yl)piperazine-1-carbonyl)acrylonitrile] | < 5.00 | > 6.30 |
| C[C@@H]1CN(C(=O)c2cnc3ccc(F)cc3c2N2CCC(C)(C#N)CC2)CCN1C(=O)C1CC1 [Example 224, (R)-1-(3-(4-(cyclopropanecareonyl)-3-methylpiperazine-1-carbonyl)-6-fluoroquinolin-4-yl)-4-methylpiperidine-4-carbonitrile] | < 5.00 | 5.00 to 6.00 |
| C[C@@H]1CN(C(=O)c2cnc3ccc(F)cc3c2N2CCC(C)(C#N)CC2)C[C@H](C)N1S(C)(=O)=O [Example 225, 1-(3-((3R*,5S*)-3,5-dimethyl-4-(methylsulfonyl)piperazine-1-carbonyl)-6-fluoroquinolin-4-yl)-4-methylpiperidine-4-carbonitrile] | < 5.00 | 5.00 to 6.00 |
| C[C@H]1CN(C(=O)c2cnc3ccc(F)cc3c2N2CCC(C)(C#N)CC2)CCN1C(=O)C1CC1 [Example 227, (S)-1-(3-(4-(cyclopropanecarbonyl)-3-methylpiperazine-1-carbonyl)-6-fluoroquinolin-4-yl)-4-methylpiperidine-4-carbonitrile] | 5.00 to 6.00 | > 6.30 |
| C[C@@H]1CN(C(=O)c2cnc3ccc(F)cc3c2N2CCC(C)(C#N)CC2)C[C@H](C)N1C(=O)C1CC1 [Example 228, 1-(3-((3R*,5S*)-4-(cyclopropanecarbonyl)-3,5-dimethylpiperazine-1-carbonyl)-6-fluoroquinolin-4-yl)-4-methylpiperidine-4-carbonitrile] | < 5.00 | 5.00 to 6.00 |
| CC1(C#N)CCN(c2c(C(=O)N3CCN(S(C)(=O)=O)C4(CC4)C3)cnc3ccc(F)cc23)CC1 [Example 230, 1-(6-fluoro-3-(4-(methylsulfonyl)-4,7-diazaspiro[2.5]octane-7-carbonyl)quinolin-4-yl)-4-methylpiperidine-4-carbonitrile] | 5.00 to 6.00 | > 6.30 |
| CC1(C#N)CCN(c2c(C(=O)N3CCN(C(=O)C4CC4)C(C)(C)C3)cnc3ccc(F)cc23)CC1 [Example 231, 1-(3-(4-(cyclopropanecarbonyl)-3,3-dimethylpiperazine-1-carbonyl)-6-fluoroquinolin-4-yl)-4-methylpiperidine-4-carbonitrile] | < 5.00 | < 5.00 |
| CC1(C#N)CCN(c2c(C(=O)N3CCN(C(=O)C4CC4)C4(CC4)C3)cnc3ccc(F)cc23)CC1 [Example 232, 1-(3-(4-(cyclopropanecarbonyl)-4,7-diazaspiro[2.5]octane-7-carbonyl)-6-fluoroquinolin-4-yl)-4-methylpiperidine-4-carbonitrile] | 5.00 to 6.00 | > 6.30 |

Second part, the compound after the results:

| pIC50 (MIA PaCa-2 cells) | pIC50 (ALDH1A1 enzyme) | SMILES |
| --- | --- | --- |
| < 5.00 | 5.00 to 6.00 | CC1(C#N)CCN(c2c(C(=O)N3CCN(C(=O)C4CC4)CC3)cnc3[nH]ncc23)CC1 [Example 237, 1-(5-(4-(cyclopropanecarbonyl)piperazine-1-carbonyl)-1H-pyrazolo[3,4-b]pyridin-4-yl)-4-methylpiperidine-4-carbonitrile] |
| < 5.00 | 5.00 to 6.00 | C[C@H]1CN(C(=O)C2CC2)CCN1C(=O)c1cnc2ccc(F)cc2c1N1CCC(C)(C#N)CC1 [Example 238, (s)-1-(3-(4-(cyclopropanecarbonyl)-2-methylpiperazine-1-carbonyl)-6-fluoroquinolin-4-yl)-4-methylpiperidine-4-carbonitrile] |
| 5.00 to 6.00 | > 6.30 | C[C@@H]1CN(C(=O)C2CC2)CCN1C(=O)c1cnc2ccc(F)cc2c1N1CCC(C)(C#N)CC1 [Example 239, (R)-1-(3-(4-(cyclopropanecarbonyl)-2-methylpiperazine-1-carbonyl)-6-fluoroquinolin-4-yl)-4-methylpiperidine-4-carbonitrile] |
| < 5.00 | 5.00 to 6.00 | C[C@@H]1CN(C(=O)C2CC2)C[C@H](C)N1C(=O)c1cnc2ccc(F)cc2c1N1CCC(C)(C#N)CC1 [Example 240, 1-(3-((2S*,6R*)-4-(cyclopropanecarbonyl)-2,6-dimethylpiperazine-1-carbonyl)-6-fluoroquinolin-4-yl)-4-methylpiperidine-4-carbonitrile] |
| < 5.00 | 5.00 to 6.00 | C[C@@H]1CN(S(C)(=O)=O)CCN1C(=O)c1cnc2ccc(F)cc2c1N1CCC(C)(C#N)CC1 [Example 241, (R)-1-(6-fluoro-3-(2-methyl-4-(methylsulfonyl)piperazine-1-carbonyl)quinolin-4-yl)-4-methylpiperidine-4-carbonitrile] |
| > 6.30 | > 6.30 | CS(=O)(=O)N1CCN(C(=O)c2cnc3ccc(F)cc3c2N2CCC(C#N)(CC3CC3)CC2)CC1 [Example 243, 4-(cyclopropylmethyl)-1-(6-fluoro-3-(4-(methylsulfonyl)piperazine-1-carbonyl)quinolin-4-yl)piperidine-4-carbonitrile] |
| 5.00 to 6.00 | > 6.30 | O=C(c1cnc2ccc(F)cc2c1N1CCC2(CC1)C(=O)Cc1ccccc12)N1CCN(C(=O)C2CC2)CC1 [Example 246, 1′-(3-(4-(cyclopropanecarbonyl)piperazine-1-carbonyl)-6-fluoroquinolin-4-yl)spiro[indene-1,4′-piperidin]-2(3H)-one] |
| 5.00 to 6.00 | > 6.30 | O=C(c1cnc2ccc(F)cc2c1N1CCC2(CCOC2=O)CC1)N1CCN(C(=O)C2CC2)CC1 [Example 248, 8-(3-(4-(cyclopropanecarbonyl)piperazine-1-carbonyl)-6-fluoroquinolin-4-yl)-2-oxa-8-azaspiro[4.5]decan-1-one] |
